Experimental findings from patent US20250049799A1, “Targeted Therapy of Pyrrolo[2,3-D]Pyrimidine Antifolates in a Syngeneic Mouse Model of High Grade Serous Ovarian Cancer” (Duquesne University of The Holy Spirit, priority 2021, published 2025) are described below.

As a reminder, the IC50 is the concentration that inhibits the measured activity by half.

One assay has as its target FRβ (Homo sapiens, UniProt P14207). The following applies: comparison of Table 3 values with PMX.
In assay [1] the test system is BR-Luc mouse HGSOC tumor cells. Put plainly: Cell proliferation assay (CellTiter-blue, 96 h), BR-Luc cells. It counts as cell-based. Here is the method: (§1) Results with BR-5 and BR-Luc cells were compared to those for IGROV1 human EOC cells (Table 1) in the absence and presence of excess folic acid (200 nM), which selectively blocks FR-mediated drug uptake without effects on RFC or PCFT^6. […] Further, inhibitions of the murine EOCs by all compounds approximated those for IGROV1 human EOC cells.
(§2) Cell proliferation assays were performed as described^6, 21. Cells were plated in 96-well dishes at densities ranging from 2500-5000 cells/well in 200 μL media and treated with a range of inhibitors spanning 0-1000 nM. Experiments used BR-5 and BR-Luc cells and folate-free RPMI 1640 media with 10% dialyzed FBS and 100 units/mL penicillin/100 μg/mL streptomycin, supplemented with 25 nM leucovorin and 2 mM L-glutamine. FR-mediated drug uptake was assessed in parallel incubations including 200 nM folic acid. Cells were treated over a 96 h period at 37° C. with 5% CO2 and relative cell numbers were quantified using the CellTiter-blue cell viability assay (Promega, Madison, WI) and a fluorescence plate reader^21. Raw data were exported to Excel for analysis and the results plotted using Graphpad Prism 6.0.

In the next assay the test system is IGROV1 human EOC cells. Put plainly: Cell proliferation assay, IGROV1 cells. It counts as cell-based. Here is the method:
as §1, §2

Assay [2] has as its system BR-5 mouse HGSOC tumor cells. Put plainly: Cell proliferation assay (CellTiter-blue, 96 h), BR-5 cells. Type of assay: cell-based. Here is the method: as §1, §2
(In general: Resazurin is reduced to fluorescent resorufin, in cell work by metabolically active cells.)

Each structure is given as a SMILES string. Where two headings read alike, the source gives them in different places.

Chain of FRβ (P14207 17-230): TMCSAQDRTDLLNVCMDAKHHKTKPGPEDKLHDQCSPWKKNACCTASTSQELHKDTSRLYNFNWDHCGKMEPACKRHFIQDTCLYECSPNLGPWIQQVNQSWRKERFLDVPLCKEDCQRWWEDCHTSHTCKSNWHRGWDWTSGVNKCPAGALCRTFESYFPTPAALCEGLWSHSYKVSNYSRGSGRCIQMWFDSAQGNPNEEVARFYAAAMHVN

`Nc1nc2[nH]c(CCCCc3csc(C(=O)N[C@@H](CCC(=O)O)C(=O)O)c3F)cc2c(=O)[nH]1` [AGF278]: on FRβ, the “Transport by folate receptor beta compared with pemetrexed (PMX)” value (shortened to “Transport … compared with pemetrexed (PMX)”) is reported as “at least ten times better transported”. For the same molecule, the 50% inhibitory concentration (IC50) was determined as 6.06 ± 3.12 nM in assay [1] (Mus musculus, no folic acid, folate-free RPMI1640, 25 nM leucovorin, mean ± SE, read-out: IC50 anti-proliferative activity BR-Luc, No addition); 588 ± 162 nM in assay [1] (Mus musculus, read-out: IC50 anti-proliferative activity BR-Luc, Folic Acid (200 nM), with 200 nM folic acid, mean ± SE); 1.9 ± 0.15 nM with IGROV1 human EOC cells (Homo sapiens, IGROV-1, no folic acid, mean ± SE, read-out: IC50 anti-proliferative activity IGROV1, No addition); 426 ± 152 nM in the assay with IGROV1 human EOC cells (Homo sapiens, IGROV-1, read-out: IC50 anti-proliferative activity IGROV1, Folic Acid (200 nM), with 200 nM folic acid, mean ± SE); 6.55 ± 3.24 nM in assay [2] (Mus musculus, no folic acid, mean ± SE, read-out: IC50 anti-proliferative activity BR-5, No addition); 547 ± 188 nM in assay [2] (Mus musculus, read-out: IC50 anti-proliferative activity BR-5, Folic Acid (200 nM), with 200 nM folic acid, mean ± SE).
Turning to `N.N.[Cl][Pt][Cl]` [Cisplatin, reference compound], the IC50 turned out to be 290 ± 170 nM in assay [1] (no folic acid, folate-free RPMI1640, 25 nM leucovorin, mean ± SE, read-out: IC50 anti-proliferative activity BR-Luc, No addition); 857 ± 62.3 nM in the assay on IGROV1 human EOC cells (no folic acid, mean ± SE, read-out: IC50 anti-proliferative activity IGROV1, No addition); 160 ± 110 nM in assay [2] (no folic acid, mean ± SE, read-out: IC50 anti-proliferative activity BR-5, No addition).
In the case of `Nc1nc2[nH]c(CCCc3ccc(C(=O)N[C@@H](CCC(=O)O)C(=O)O)s3)cc2c(=O)[nH]1` [Compound 1], the “Transport … compared with pemetrexed (PMX)” value on FRβ is “at least ten times better transported”.
For `Nc1nc2[nH]c(CCCCc3ccc(C(=O)N[C@@H](CCC(=O)O)C(=O)O)cc3)cc2c(=O)[nH]1` [Compound 2], the “Transport … compared with pemetrexed (PMX)” value at FRβ was “at least ten times better transported”.
Consider `Nc1nc2[nH]c(CCCCc3ccc(C(=O)N[C@@H](CCC(=O)O)C(=O)O)nc3)cc2c(=O)[nH]1` [Compound 4], for which the “Transport … compared with pemetrexed (PMX)” value on FRβ was “at least ten times better transported”.
Turning to `Nc1nc2[nH]c(CCCCc3csc(C(=O)N[C@@H](CCC(=O)O)C(=O)O)c3)cc2c(=O)[nH]1` [Compound 5], on FRβ, the “Transport … compared with pemetrexed (PMX)” value is recorded as “at least ten times better transported”.
For `Nc1nc2[nH]c(CCCCc3ccc(C(=O)N[C@@H](CCC(=O)O)C(=O)O)c(F)c3)cc2c(=O)[nH]1` [Compound 8], on FRβ, the “Transport … compared with pemetrexed (PMX)” value is “at least ten times better transported”.
The same measure, in the same setting: under `Nc1nc2[nH]c(CCCCc3cnc(C(=O)N[C@@H](CCC(=O)O)C(=O)O)c(F)c3)cc2c(=O)[nH]1` [Compound 10] stands “at least ten times better transported”.
